How the values were obtained:
human Notch 1 = assay: Notch-CBF1 Transactivation Assay (Notch 1); assay type: cell-based; settings: read-out: Notch 1 IC50; Notch-CBF1 transactivation luciferase assay in transfected HeLa cells; some values are an average of N experiments
Excerpt: (§1) Notch-CBF1 Transactivation Assay
(§2) The Notch-CBF1 (C-promoter binding factor I) cell based transactivation assay is based on the ability of the released Notch intracellular domain fragments (NICDs) to function as transcription factors in conjunction with CBF1 and other nuclear factors. Luciferase assays were used to measure the antagonism of Notch-CBF1 transcriptional activity. HeLa cervical cancer cells are transiently co-transfected with pCDNA3.1/Hygro plasmids containing truncated Notch 1, Notch 2, Notch 3, or Notch 4 receptors and a PGL3 luciferase reporter vector containing 4 copies of CBF1 binding site. The cells were then tested for Notch-CBF1 activity in the absence or presence of test compounds. HeLa cells, maintained in DMEM (high glucose with HEPES), 1× glutamine/penicillin/streptomycin and 10% Fetal Bovine serum, were transiently transfected in a T175 Flask (4.5×10^6 cells/flask) using the Monster Transfection Kit (Minis #MIR2906) according to manufacturers specifications. Table 13 denotes respective DNA quantity for the transfections.
(§3) Assay media (5 μL) containing test compounds in final concentrations ranging from 5 μM to 8.4×10^−5 μM (3 fold serial dilutions) were added to the cells and the cell plates were then incubated for 18 hours at 37° C. and 5% CO2. Control wells contained DMSO vehicle (total counts) or 0.5 μM of an in-house small molecule inhibitor (background counts). Duplicates were used for each sample. Luciferase activity was measured after a 20-minute incubation with 50 μl STEADY-GLO® luciferase reagents according to manufacturer's specifications (Promega, Cat. #E2550) and analyzed by Envision plate reader (PerkinElmer, Boston, Mass.).
(§4) The antagonist effect of compounds was expressed as 100×[1−(average sample−average background)/(average total−average background)] where sample is the luciferase activity in the presence of test compound, background is equal to the luciferase activity in the presence of the small molecule inhibitor control and the total is signal induced in DMSO wells.

human Notch 3 = assay: Notch-CBF1 Transactivation Assay (Notch 3); assay type: cell-based; settings: read-out: Notch 3 IC50; Notch-CBF1 transactivation luciferase assay in transfected HeLa cells; some values are an average of N experiments
Excerpt: as §1, §2, §3, §4

[1] = human metabolic stability half-life assay; settings: microsomes, human liver microsomes
Method: Metabolic Stability Half-Life Panel
Incubation with Liver Microsomes

[2] = system: Human T-cell acute lymphoblastic leukemia cell line TALL-1; assay: Human Tumor Xenograft Models in Mice: TALL-1; assay type: in vivo; settings: for Antitumor Activity in TALL-1 (LCK), QD dosing / Antitumor Activity in TALL-1 (LCK), BID dosing: Log Cell Kill, oral administration, schedule QDx10, dose unit not given; for Antitumor Activity in TALL-1 (LCK), QD dosing: dose 20 (Ex 1, 52), 12 (Ex 10), 40 (Ex 40); for antitumor activity in the Human Tumor Xenograft Models in mice: oral administration (PO) either BID and/or QD, Table 24 (TALL-1); for Antitumor Activity in TALL-1 (LCK), BID dosing: dose 20 (Ex 35, 37)
[3] = system: human triple negative breast carcinoma cell line MDA-MB-157; assay: Human Tumor Xenograft Models in Mice: MDA-MB-157; assay type: in vivo; settings: PO, QDx15 (10 day on-2 day off-5 day on); FIG. 14; result in words
Method: (§5) Dosed orally; PO, QDx15 (10 day on-2 day off-5 day on). Each symbol represents the median tumor burden of a group of 8 mice.
(§6) Human Tumor Xenograft Models in Mice
(§7) Mice were fed food and water ad libitum.
(§8) Preclinical Chemotherapy Trials
(§9) Tumor growth inhibition is calculated as follows: […]
(§10) In Vivo Antitumor Activity

[4] = system: human triple negative breast carcinoma cell line MDA-MB-468; assay: Human Tumor Xenograft Models in Mice: MDA-MB-468; assay type: in vivo; settings: PO, QDx15 (10 day on-2 day off-5 day on); FIG. 15; result in words
Method: as §5, §6, §7, §8, §9, §10

[5] = system: human PAT70 pancreatic carcinoma cell line; assay: Human Tumor Xenograft Models in Mice: PAT70; assay type: in vivo; settings: PO, QDx15 (10 day on-2 day off-5 day on); FIG. 16; result in words
Method: as §5, §6, §7, §8, §9, §10

[6] = pH 7.4, CYP-mediated metabolic stability half life, NADPH-dependent
[7] = pH 7.4, HLM (t1/2, min), CYP-mediated (NADPH-dependent), 0.5 μM compound, 45 min time course, some values are an average of N experiments

| Compound | IC50 (human Notch 1) [nM] | IC50 (human Notch 3) [nM] | half-life at 0.5 µM [1, 6] [min] | half-life at 0.5 µM [1, 7] [min] | Antitumor Activity in TALL-1 (LCK), QD dosing [2] | in vivo antitumor activity, TALL-1 xenograft ([2]; PO, QDx10, FIGS. 12-13, result in words) | antitumor activity in the Human Tumor Xenograft Models in mice ([2]; result in words) | in vivo antitumor activity, MDA-MB-157 xenograft [3] | in vivo antitumor activity, MDA-MB-468 xenograft [4] | in vivo antitumor activity, PAT70 xenograft [5] | Antitumor Activity in TALL-1 (LCK), BID dosing [2] |
| --- | --- | --- | --- | --- | --- | --- | --- | --- | --- | --- | --- |
| NC(=O)[C@@H](CC1CC1)[C@@H](CCC(F)(F)F)C(=O)N[C@H]1N=C(c2ccccc2)c2cccc(F)c2NC1=O [Example 1, (2R,3S)-3-(Cyclopropylmethyl)-N-((3S)-9-fluoro-2-oxo-5-phenyl-2,3-dihydro-1H-1,4-benzodiazepin-3-yl)-2-(3,3,3-trifluoropropyl)succinamide] | 4.2 | 6.2 | ≥ 30 | 85 | 4.5 | exhibited antitumor activity | showed antitumor activity | exhibited antitumor activity | exhibited antitumor activity | exhibited antitumor activity |  |
| Cc1cccc2c1NC(=O)[C@@H](NC(=O)[C@H](CCC(F)(F)F)[C@H](CC1CC1)C(N)=O)N=C2c1cccc(F)c1 [Example 10, (2R,3S)-3-(Cyclopropylmethyl)-N-((3S)-5-(3-fluorophenyl)-9-methyl-2-oxo-2,3-dihydro-1H-1,4-benzodiazepin-3-yl)-2-(3,3,3-trifluoropropyl)succinamide] | 4 | 9.7 | ≥ 30 | 72 | >2.8 |  | showed antitumor activity |  |  |  |  |
| NC(=O)[C@@H](CC1CC1)[C@@H](CCC(F)(F)F)C(=O)N[C@H]1N=C(c2ccccc2)c2ccc(Cl)c(Cl)c2NC1=O [Example 34, (2R,3S)-3-(Cyclopropylmethyl)-N-((3S)-8,9-dichloro-2-oxo-5-phenyl-2,3-dihydro-1H-1,4-benzodiazepin-3-yl)-2-(3,3,3-trifluoropropyl)succinamide] | 4.7 | 7.4 | ≥ 30 | > 120 |  |  |  |  |  |  |  |
| CCC[C@H](C(N)=O)[C@@H](CCC(F)(F)F)C(=O)N[C@H]1N=C(c2ccccc2)c2cccc(C(F)(F)F)c2NC1=O [Example 35, (2R,3S)—N-((3S)-2-Oxo-5-phenyl-9-(trifluoromethyl)-2,3-dihydro-1H-1,4-benzodiazepin-3-yl)-3-propyl-2-(3,3,3-trifluoropropyl)succinamide] | 16.1 | 12.9 | ≥ 30 | 36 |  |  | showed antitumor activity |  |  |  | 3.1 |
| NC(=O)[C@@H](CC1CC1)[C@@H](CCC(F)(F)F)C(=O)N[C@H]1N=C(c2ccccc2)c2cccc(C(F)(F)F)c2NC1=O [Example 36, (2R,3S)-3-(Cyclopropylmethyl)-N-((3S)-2-oxo-5-phenyl-9-(trifluoromethyl)-2,3-dihydro-1H-1,4-benzodiazepin-3-yl)-2-(3,3,3-trifluoropropyl)succinamide] | 7.9 | 8.3 | ≥ 30 | > 120 |  |  |  |  |  |  |  |
| CCC[C@H](C(N)=O)[C@@H](CCC(F)(F)F)C(=O)N[C@H]1N=C(c2ccccc2)c2cccc(F)c2NC1=O [Example 37, (2R,3S)—N-((3S)-9-Fluoro-2-oxo-5-phenyl-2,3-dihydro-1H-1,4-benzodiazepin-3-yl)-3-propyl-2-(3,3,3-trifluoropropyl)succinamide] | 4.4 | 11.3 | ≥ 30 | 43 |  |  | showed antitumor activity |  |  |  | 2.0 |
| COc1cccc2c1NC(=O)[C@@H](NC(=O)[C@H](CCC(F)(F)F)[C@H](CC1CC1)C(N)=O)N=C2c1ccccc1 [Example 38, (2R,3S)-3-(Cyclopropylmethyl)-N-((3S)-9-methoxy-2-oxo-5-phenyl-2,3-dihydro-1H-1,4-benzodiazepin-3-yl)-2-(3,3,3-trifluoropropyl)succinamide] | 2.3 | 3.3 | ≥ 30 | 70 |  |  |  |  |  |  |  |
| CCC[C@H](C(N)=O)[C@@H](CCC(F)(F)F)C(=O)N[C@H]1N=C(c2ccccc2)c2ccc(Br)c(OC)c2NC1=O [Example 39, (2R,3S)—N-((3S)-8-Bromo-9-methoxy-2-oxo-5-phenyl-2,3-dihydro-1H-1,4-benzodiazepin-3-yl)-3-propyl-2-(3,3,3-trifluoropropyl)succinamide] | 13.4 | 12 | ≥ 30 | 38 |  |  |  |  |  |  |  |
| CCC[C@H](C(N)=O)[C@@H](CCC(F)(F)F)C(=O)N[C@H]1N=C(c2ccccc2)c2cccc(OC)c2NC1=O [Example 40, (2R,3S)—N-((3S)-9-Methoxy-2-oxo-5-phenyl-2,3-dihydro-1H-1,4-benzodiazepin-3-yl)-3-propyl-2-(3,3,3-trifluoropropyl)succinamide] | 6.8 | 6.9 | ≥ 30 | 34 | 1.4 |  | showed antitumor activity |  |  |  |  |
| CCC[C@H](C(N)=O)[C@@H](CCC(F)(F)F)C(=O)N[C@H]1N=C(c2ccccc2)c2cccc(O)c2NC1=O [Example 41, (2R,3S)—N-((3S)-9-Hydroxy-2-oxo-5-phenyl-2,3-dihydro-1H-1,4-benzodiazepin-3-yl)-3-propyl-2-(3,3,3-trifluoropropyl)succinamide] | 9.1 | 12.4 | ≥ 30 | 45 |  |  |  |  |  |  |  |
| NC(=O)[C@@H](CC1CC1)[C@@H](CCC(F)(F)F)C(=O)N[C@H]1N=C(c2ccccc2)c2cccc(Cl)c2NC1=O [Example 42, (2R,3S)—N-((3S)-9-Chloro-2-oxo-5-phenyl-2,3-dihydro-1H-1,4-benzodiazepin-3-yl)-3-(cyclopropylmethyl)-2-(3,3,3-trifluoropropyl)succinamide] | 1.9 | 3.5 | ≥ 30 | 87 |  |  |  |  |  |  |  |
| CCC[C@H](C(N)=O)[C@@H](CCC(F)(F)F)C(=O)N[C@H]1N=C(c2ccccc2)c2cccc(Cl)c2NC1=O [Example 43, (2R,3S)—N-((3S)-9-Chloro-2-oxo-5-phenyl-2,3-dihydro-1H-1,4-benzodiazepin-3-yl)-3-propyl-2-(3,3,3-trifluoropropyl)succinamide] | 3.3 | 4.8 | ≥ 30 | 30 |  |  |  |  |  |  |  |
| CC(C)[C@H](N)C(=O)OCN1C(=O)[C@@H](NC(=O)[C@H](CCC(F)(F)F)[C@H](CC2CC2)C(N)=O)N=C(c2ccccc2)c2cccc(F)c21 [Example 52, ((3S)-3-(((2R)-2-((1S)-2-Amino-1-(cyclopropylmethyl)-2-oxoethyl)-5,5,5-trifluoropentanoyl)amino)-9-fluoro-2-oxo-5-phenyl-2,3-dihydro-1H-1,4-benzodiazepin-1-yl)methyl L-valinate] |  |  |  |  | 5.7 |  | showed antitumor activity |  |  |  |  |
